From patent US7693320B2, “Three time point lung cancer detection, diagnosis and assessment of prognosis” (Yeda Research and Development Co. Ltd., priority 2004, dated 2010)

Legend:
[1] = set-up: species or system patients; conditions: human, in vivo, iv
Description: For example, in a CT application, HU units (Hounsfield Units) measuring signal intensity S(t) are converted to Ultravist 300 concentration units (ml ultravist 300 solution/liter saline). The relationship between the measured signal intensity S(t) in HU and the concentration C(t) of contrast material (in ml per l) is described by: S(t)=p+qC(t) (1) where p and q are parameters to be determined.
Enhancement, E(t), is defined as the difference in signal intensities before and after contrast material injection: E(t)=S(t)−S(t0)=q[C(t)−C(t0)] (2)
The experimental factor that converts HU units to contrast material concentration units can be determined by preparing tubes with different concentrations of Ultravist 300 in normal saline. The tubes can then be scanned by the CT.
For example, for prepared concentrations, C (in ml Ultravist 300 per 1 saline), may be in the range of 0 to 2% (20 ml per l) which is approximately the concentration in the blood after the injection. […] (The dose of 1.5 ml/kg in a 70 kg patient corresponds to ˜20 ml/l, about 2% in blood.)
The contrast agent for the CT was Iopromide (Ultravist 300; Schering) at a dose of 1.5 ml/kg, delivered through the antecubital vein at a rate of 3 ml/sec using an automatic injector (EnVision CT™). The patients were instructed to hold their breath following maximal expiration during the scanning, to decrease movement.
For each patient, the inventors recorded the signal intensity, S, of a central ROI in the aorta before contrast administration and at a selected time point after contrast injection. The inventors in the research study used the relation between HU and concentration units of Ultravist 300 (see above) to convert the measured enhancement to the corresponding concentration in the aorta, Cp(t), assuming similar pharmacokinetics for all patients with normal kidney function. Cp(t) in ml contrast agent per liter blood was fitted to the equation: Cp(t)=D(a1e^−m1^t+a2e^−m2^t) D=dose in ml/kg […] Eq. 3. to obtain: a1=8.48 kg/l, a2=7.34 kg/l, m1=1.43 min^−1, m2=0.1 min^−1.
FIG. 2 illustrates enhancement (as defined in Eq. 2) in the aorta as a function of time after Iopromide (ultravist 300) injection at a dose of 0.15 ml/kg. The decay in the enhancement followed eq. 3 using the concentration to enhancement conversion (equation 2).

[2] = cited from earlier work

COCC(=O)Nc1c(I)c(C(=O)NCC(O)CO)c(I)c(C(=O)N(C)CC(O)CO)c1I (stereo not shown) [Iopromide]
a1 (amplitude of Cp(t)=D(a1e^-m1t+a2e^-m2t)) [1]: 8.48 kg/L | a2 (amplitude of Cp(t)=D(a1e^-m1t+a2e^-m2t)) [1]: 7.34 kg/L | m1 (decay rate constant of Cp(t)) [1]: 1.43 min⁻¹ | m2 (decay rate constant of Cp(t)) [1]: 0.1 min⁻¹ | fraction of the dosage excreted in feces ([2]; following IV administration): 1.5% | half-life of distribution in the extracellular space ([2]; following IV administration): 3 min | elimination half-life ([2]; patients of normal kidney function, irrespective of the dose): ~2 h
